Values quoted from earlier work, collected in patent US12130296B2, “Method for the direct detection and/or quantification of at least one compound with a molecular weight of at least 200” (SANIFIT THERAPEUTICS S.A., priority 2011, dated 2024).

Settings: 12 dissociable protons; Carbohydr Res 46, 159-171; 1976

- pKa values: from negative values to more than 10
SMILES: O=P(O)(O)O[C@H]1[C@H](OP(=O)(O)O)[C@@H](OP(=O)(O)O)[C@H](OP(=O)(O)O)[C@@H](OP(=O)(O)O)[C@H]1OP(=O)(O)O [inositol hexaphosphate]
